These are literature values, as cited in patent publication US20060094734A1, “Composition and method for inducing alertness” (priority 2004, published 2006).

The subject of the data set is rats. Particulars: rat, in vivo.

As for `NCCS(=O)(=O)O` [taurine, 2-aminoethanesulfonic acid], the “LD 50” value is “greater than 5,000 mg/kg”.
